From patent US20110245249A1, “Heterocyclically Substituted Anilinopyrimidines” (Bayer CropScience AG, priority 2008, published 2011)

Experiments:
[1] = system: Production of Fumonisin FB1 by Fusarium proliferatum; assay: Production of Fumonisin FB1 by Fusarium proliferatum; type: cell-based; conditions: FB1 in liquid medium after 6 days at 20° C., HPLC-MS/MS; for IC50: Fusarium proliferatum, 144 h, read-out: pI50 Fum (converted)
Fusarium proliferatum = assay: Growth of Fusarium proliferatum (OD620) in the fumonisin test; type: cell-based; conditions: for IC50: Fusarium proliferatum, 144 h, read-out: pI50 growth; for pI50 growth: OD620 at the beginning and after 6 days
[2] = system: Production of DON/acetyl-DON by Fusarium graminearum; assay: microbe, parasite or virus in culture; type: cell-based; conditions: 168 h, 7 days at 28° C., read-out: activity in the inhibition of DON/AcDON
[3] = logP by HPLC on reversed-phase columns (EEC Directive 79/831 Annex V.A8); type: physicochemical
Method in brief: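 Values come from three gradient methods (10% to 95% acetonitrile) on C18 columns following EEC 79/831 Annex V.A8: LC-MS at pH 7.8 (0.001 molar ammonium bicarbonate), LC-MS at pH 2.7 (formic acid 0.1%, also in acetonitrile), and HPLC at pH 2.3 (phosphoric acid 0.1%).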

Phakopsora pachyrhizi = assay: Phakopsora test (soya beans)/protective; type: in vivo; conditions: protective, active compound concentration 250 ppm, evaluation 1 day after inoculation
Procedure: Phakopsora Test (Soya Beans)/Protective
Evaluation is carried out 1 day after the inoculation.

Clc1cnc(Nc2cccc(C3OCCO3)c2)nc1NC1CC1 [Example 1, 5-Chloro-N^4-cyclopropyl-N^2-[3-(1,3-dioxolan-2-yl)phenyl]pyrimidine-2,4-diamine]
IC50 [1]: 0.158 µM | IC50 (Fusarium proliferatum): 0.398 µM | inhibition at 50 µM [2]: > 80% | chromatographic logP ([3]; pH 2.7, log p [b]): 1.59 | chromatographic logP ([3]; pH 2.7, logP (pH 2.7)): 1.59 | chromatographic logP ([3]; pH 7.8, log p [c]): 2.67

Clc1cnc(Nc2cccc(C3OCCCO3)c2)nc1NC1CC1 [Example 5, 5-Chloro-N^4-cyclopropyl-N^2-[3-(1,3-dioxan-2-yl)phenyl]pyrimidine-2,4-diamine]
IC50 [1]: 0.251 µM | IC50 (Fusarium proliferatum): 0.794 µM | chromatographic logP ([3]; pH 2.7, log p [b]): 1.69 | chromatographic logP ([3]; pH 2.7, logP (pH 2.7)): 1.69 | chromatographic logP ([3]; pH 7.8, log p [c]): 2.83

CC1(c2cccc(Nc3ncc(Cl)c(NC4CC4)n3)c2)OCCCO1 [Example 6]
pI50 growth (Fusarium proliferatum): 5.5

CC1(c2cccc(Nc3ncc(Cl)c(NC4CC4)n3)c2)OCCO1 [Example 12, 5-Chloro-N^4-cyclopropyl-N^2-[3-(2-methyl-1,3-dioxolan-2-yl)phenyl]pyrimidine-2,4-diamine]
IC50 [1]: 0.501 µM | IC50 (Fusarium proliferatum): 1.58 µM | chromatographic logP ([3]; pH 2.7, log p [b]): 1.9 | chromatographic logP ([3]; pH 2.7, logP (pH 2.7)): 1.9 | chromatographic logP ([3]; pH 7.8, log p [c]): 3.09

CC1OC(c2cccc(Nc3ncc(Br)c(NC4CC4)n3)c2)OC1C (stereo not shown) [Example 14]
pI50 growth (Fusarium proliferatum): 5.5 | log p [b] ([3]; pH 2.7): 2.31 | log p [c] ([3]; pH 7.8): 3.5

CC1(C)COC(c2cccc(Nc3ncc(Br)c(NC4CC4)n3)c2)OC1 [Example 16]
pI50 Fum [1]: 6 | log p [b] ([3]; pH 2.7): 2.65 | log p [c] ([3]; pH 7.8): 3.9

FC(F)(F)c1cnc(Nc2cccc(C3OCCO3)c2)nc1NC1CCC1 [Example 22]
pI50 growth (Fusarium proliferatum): 5.5 | log p [b] ([3]; pH 2.7): 3.06 | log p [c] ([3]; pH 7.8): 3.57

CN(c1nc(Nc2cccc(C3OCCO3)c2)ncc1Cl)C1CC1 [Example 23]
pI50 growth (Fusarium proliferatum): 4.9 | log p [b] ([3]; pH 2.7): 2.52 | log p [c] ([3]; pH 7.8): 3.45

FC(F)(F)c1cnc(Nc2cccc(C3OCCO3)c2)nc1NC1CC1 [Example 24]
pI50 Fum [1]: 6 | pI50 growth (Fusarium proliferatum): 5.5 | log p [b] ([3]; pH 2.7): 3.7 | log p [c] ([3]; pH 7.8): 3.02

CC1(c2ccc(Nc3ncc(Cl)c(NC4CC4)n3)cc2)OCCO1 [Example 27, 5-Chloro-N^4-cyclopropyl-N^2-[4-(2-methyl-1,3-dioxolan-2-yl)phenyl]pyrimidine-2,4-diamine]
IC50 [1]: 0.398 µM | IC50 (Fusarium proliferatum): 1 µM | chromatographic logP ([3]; pH 2.7, log p [b]): 1.84 | chromatographic logP ([3]; pH 2.7, logP (pH 2.7)): 1.84 | chromatographic logP ([3]; pH 7.8, log p [c]): 2.99

COCC1COC(c2cccc(Nc3ncc(Cl)c(NC4CC4)n3)c2)O1 (stereo not shown) [Example 28]
pI50 Fum [1]: 6.5 | log p [b] ([3]; pH 2.7): 2.21 | log p [c] ([3]; pH 7.8): 2.81

CC(C)(C)C1COC(c2cccc(Nc3ncc(Cl)c(NC4CC4)n3)c2)O1 (stereo not shown) [Example 30]
pI50 Fum [1]: 6 | pI50 growth (Fusarium proliferatum): 5.3 | log p [c] ([3]; pH 7.8): 4.34[c]

COCC1COC(c2cccc(Nc3ncc(C(F)(F)F)c(NC4CC4)n3)c2)O1 (stereo not shown) [Example 105]
efficacy (Phakopsora pachyrhizi): ≥ 80% | pI50 growth (Fusarium proliferatum): 5.5 | log p [a] ([3]; pH 2.3): 2.26 | log p [b] ([3]; pH 2.7): 2.74[b] | log p [c] ([3]; pH 7.8): 3.23

CC(C)Nc1nc(Nc2cccc(C3OCCCO3)c2)ncc1Cl [Example 149]
log p ([3]; pH 2.7): 1.73 | log p ([3]; pH 7.8): 3.2

CCC1COC(c2cccc(Nc3ncc(Br)c(NC4CC4)n3)c2)O1 (stereo not shown) [Example 150]
log p ([3]; pH 7.8): 3.68[c]

Brc1cnc(Nc2cccc(C3OCCCO3)c2)nc1NC1CCC1 [Example 151]
log p ([3]; pH 2.7): 2.11 | log p ([3]; pH 7.8): 3.54

Clc1cnc(Nc2cccc(C3OCCCO3)c2)nc1NCC1CC1 [Example 152]
log p ([3]; pH 2.7): 1.87[b]

FC(F)(F)c1cnc(Nc2cccc(C3OCCCO3)c2)nc1NC1CC1 [Example 153]
log p ([3]; pH 2.7): 2.71[b]

CCOCCOCC1COC(c2cccc(Nc3ncc(Cl)c(NC4CC4)n3)c2)O1 (stereo not shown) [Example 154]
log p ([3]; pH 2.7): 2.05 | log p ([3]; pH 7.8): 3.13

CC1CSC(c2cccc(Nc3ncc(C(F)(F)F)c(NC4CC4)n3)c2)S1 (stereo not shown) [Example 155]
log p ([3]; pH 2.7): 4.14 | log p ([3]; pH 7.8): 4.44

Clc1cnc(Nc2cccc(C3OCC(CBr)O3)c2)nc1NC1CC1 (stereo not shown) [Example 156]
log p ([3]; pH 2.7): 2.39 | log p ([3]; pH 7.8): 3.48

CC1CCC2OC(c3cccc(Nc4ncc(Cl)c(NC5CC5)n4)c3)OC12 (stereo not shown) [Example 157]
log p ([3]; pH 2.7): 2.79 | log p ([3]; pH 7.8): 4.1

CC1(C)OC(c2cccc(Nc3ncc(Cl)c(NC4CC4)n3)c2)OC1(C)C [Example 158]
log p ([3]; pH 2.7): 2.78 | log p ([3]; pH 7.8): 4.13

CCC1(CO)COC(c2cccc(Nc3ncc(Cl)c(NC4CC4)n3)c2)OC1 (stereo not shown) [Example 159]
log p ([3]; pH 2.7): 1.82 | log p ([3]; pH 7.8): 2.77

OCC1CSC(c2cccc(Nc3ncc(Cl)c(NC4CC4)n3)c2)S1 (stereo not shown) [Example 160]
log p ([3]; pH 7.8): 2.72[c]

CC1CSC(c2cccc(Nc3ncc(Cl)c(NC4CC4)n3)c2)S1 (stereo not shown) [Example 161]
log p ([3]; pH 2.7): 2.79 | log p ([3]; pH 7.8): 4.14

OCC1CSC(c2cccc(Nc3ncc(Cl)c(NC4CCC4)n3)c2)S1 (stereo not shown) [Example 162]
log p ([3]; pH 2.7): 1.93 | log p ([3]; pH 7.8): 3.14

CC1CSC(c2cccc(Nc3ncc(Cl)c(NC4CCC4)n3)c2)S1 (stereo not shown) [Example 163]
log p ([3]; pH 2.7): 3.23 | log p ([3]; pH 7.8): 4.72

OCC1CSC(c2cccc(Nc3ncc(Br)c(NC4CCC4)n3)c2)S1 (stereo not shown) [Example 164]
log p ([3]; pH 2.7): 2.11 | log p ([3]; pH 7.8): 3.28

CC1CSC(c2cccc(Nc3ncc(Br)c(NC4CCC4)n3)c2)S1 (stereo not shown) [Example 165]
log p ([3]; pH 2.7): 3.49 | log p ([3]; pH 7.8): 4.92

OCC1CSC(c2cccc(Nc3ncc(Br)c(NC4CC4)n3)c2)S1 (stereo not shown) [Example 166]
log p ([3]; pH 2.7): 1.89 | log p ([3]; pH 7.8): 2.85

CC1CSC(c2cccc(Nc3ncc(Br)c(NC4CC4)n3)c2)S1 (stereo not shown) [Example 167]
log p ([3]; pH 2.7): 3.1 | log p ([3]; pH 7.8): 4.31

OCC1CSC(c2cccc(Nc3ncc(C(F)(F)F)c(NC4CC4)n3)c2)S1 (stereo not shown) [Example 168]
log p ([3]; pH 2.7): 2.65 | log p ([3]; pH 7.8): 3.03
